Like-named read-outs stand apart in the source and are kept apart here. Marks after values point to notes of the source that are not given here.
Key:
[1] = Stability in liver microsomes in vitro (ADMET); assay type: in vitro ADME; details: for Stability in liver microsomes: in vitro
From the text: (§1) Objective: To investigate the Absorption, Distribution, Metabolism, Excretion and Toxicity (abbreviated as: ADMET) of OBR 5-340 in vitro, as well as in vitro tests on the plasma protein binding and the stability in the plasma and in liver microsomes. Tests: The In vitro tests performed with CRCV-340 as well as the data obtained are summarised in Table 2 in comparison with Ref. 2.

[2] = Acute toxicity in mice after single peroral administration; assay type: in vivo; details: for LD50 at 72 h: mouse, in vivo; for LD50 at 72 h / LD50: single peroral administration
Experimental: Tests: The acute toxicity of the substance CRCV-340 was tested in mice 19.5-20.5 g in weight, which was administered per os 40, 60, 80 or 120 mg substance/mouse (per 5 mice per substance and concentration). This corresponds to a dose of approx. 2 g, 3 g, 4 g or 6 g per kilogramme body weight. The toxic effects observed in the result correlated to the substance dose administered.

[3] = Plasma stability in vitro (ADMET); assay type: in vitro ADME
From the text: as §1

[4] = Pharmacokinetics in mice, single per os application, HPLC of plasma; assay type: in vivo; details: for AUC(0-t) / AUC(0-inf) / Cmax / MRT / half-life / Tmax: mouse, po; for AUC(0-t): read-out: AUC0-t (area under curve); for AUC(0-inf): read-out: AUC0-∞ (area under curve); for Cmax: read-out: Cmax (maximum concentration in the blood); for MRT: read-out: MRT (mean residence time); for half-life: read-out: T1/2 (half life) (converted); for Tmax: read-out: Tmax (time to reach the maximum concentration in the blood)
Experimental: Tests: Substance and reference substance were applied respectively once in a concentration of 100 mg/kg KG, in 0.5 ml of a 10% Cremophor solution per os to the mice, After 0.5, 1, 2, 3, 4, 5, 6 and 7 hrs serum was taken and by means of HPLC analysis the concentrations of CRCV-340, Ref-2 and Ref-3 determined in the plasma of the mice.
Using the substance concentrations in the blood plasma determined by HPLC the pharmacokinetic parameters of the substances were calculated using the computer program ESTRIP (Table 3).

plasma protein = assay: Plasma protein binding and release in vitro (ADMET); assay type: in vitro ADME; details: for Binding to plasma protein / Release of plasma protein: in vitro
From the text: as §1

clinical CVB3 isolates = assay: Plaque-reduction test with clinical CVB3 isolates; assay type: cell-based; details: for IC50: Enterovirus B, CVB3; for Number of sensitive CVB3: of 20 clinical isolates, CRCV-340 maximum tested concentration 13.5 μM
From the text: (§2) Objective: To determine the antiviral effective spectrum of CRCV-340 in respect of 50 different human rhinovirus serotypes and CVB3 patient isolates.
(§3) Tests: The 50 HRV serotypes and 20 clinical CVB3 isolates were reproduced in HeLa, HeLa Wis and/or LF cells, their titre determined and the serotype verified using sequencing. Accordingly zpE (zytopathic effect) inhibitory tests with the HRV or plaque-reductions tests with the CVB3 isolates were established. In the corresponding antiviral tests dose effect investigations with Ref-3 and CRCV-340 were carried out. Tables 5 and 6 give an overview of the mean 50% inhibitory concentrations.

[5] = Subacute toxicity in mice over 28 days, intragastric; assay type: in vivo; details: mice, 12.5, 50 or 200 mg/kg once a day over 28 days
Experimental: Objective: To determine the subacute toxicity in mice in order to reveal possible side effects e.g. on general condition, weight, internal organs and metabolism, which could arise with subacute administration of CRCV-340 over 28 days.
Tests: Thus male and female mice weighing approx. 20 g received 12.5, 50 or 200 mg/kg of the substance CRCV-340 in a Cremophor formulation or the control group received Cremophor once a day over 28 days intragastrically administered via a tube. During the total period of the experiment the condition of the coat and the mucous membranes, the excreta and the general condition were assessed. The recording of the weight took place on days 7, 14, 21 and 28. Approx. 24 hrs. after the last substance dose the sense of direction of the animals was examined. The following biochemical parameters in the serum were analysed: protein content, urea, creatinine, the serum activity of aspartate aminotransferase, alanine aminotransferase and alkaline phosphatase. The haemoglobin concentration, hematocrit, the number of red and white blood cells as well as the platelets was determined in the blood smear. At the end of the experiment the mice were killed under anaesthetic and dissected, the condition of the internal organs were assessed macroscopically, the organ weight determined and samples for subsequent histological tests put into formalin.

CVB3 31-1-93 [6] = assay: Lethal mouse model of CVB3-induced myocarditis; assay type: in vivo; details: CVB3 31-1-93-infected BALB/c mice, 100 mg/kg twice a day over 7 days
Experimental: Investigations: The effect of the development candidate CRCV-340 was examined following testing of the infection dose in the model of the CVB 3-induced myocarditis in 6-7 weeks old male BALB/c mice. In addition CVB3 31-1-93 or CVB3 H3-infected animals received twice a day 100 mg/kg of the substance in 20% PEG-400 in 1% CMC in water (placebo) administered over 7 days. Changes in body weight, general condition and the lethality defined through the surrogate marker 25% loss of body weight served as parameters to evaluate the therapeutic effect. Pseudo-infected, placebo-treated or CRCV-340-treated animals represented the negative control and infected, placebo- or pleconaril-treated animals the positive control over the course of the infection.

[7] = system: human rhinovirus serotypes (HRV); assay: zpE (cytopathic effect) inhibitory test with HRV serotypes; assay type: cell-based; details: for IC50: Human rhinovirus sp.; for Number of sensitive HRV: of 50 examined serotypes
From the text: as §2, §3

CVB3 31-1-93 [8] = assay: Mouse model of CVB3-induced chronic myocarditis; assay type: in vivo; details: CVB3 31-1-93-infected NMRI mice, 100 mg/kg once or twice a day over 7 days
Experimental: Investigations: The effect of CRCV-340 was investigated in the model of CVB 3-induced myocarditis in 8-week old male NMRI mice. In addition CVB3 31-1-93 or CVB3 H3-infected animals received once or twice a day 100 mg/kg of the substance in 50% or 20% PEG-400 in 1% CMC in water (placebo) administered over 7 days. Parameters to evaluate the therapeutic effect included changes in body weight, general condition, virus titre in heart and pancreas tissue as well as histopathological changes in the heart and pancreas. Pseudo-infected, placebo-treated or CRCV-340-treated animals served as a negative control and infected, placebo- or pleconaril-treated animals as a positive control over the course of the infection.

[9] = In vivo conversion of prodrug to 1H pyrazol compound (serum); details: in the serum mainly only the final active ingredient (CRCV-340) can be proven
From the text: Also covered are pro pharmacons (prodrugs) of the compounds, especially those which are characterized by a substituent on the pyrazol heteroatom in position 1. It has been shown that such types of compounds are converted in vivo to the 1H pyrazol compound. As an example, compounds have been mentioned in respect of which the pyrazol heteroatom in position 1 is substituted by an imino(phenyl)methyl substituent, such as, for example, 1-[Imino(phenyl)methyl]-4-amino-3-(4-trifluormethyl-phenyl)amino-6-phenylpyrazolo[3,4-d]pyrimidine, also designated by the IUPAC name 1-benzylcarboximidoyl-6-phenyl-3-N-[4-(trifluormethyl)phenyl]-1H-pyrazolo[3,4-d]-pyrimidine-3,4-diamine. Here this relates to a by-product of the manufacture of the compound described above, CRCV-340, resulting from the reaction of the compound CRCV-340 with an excess of benzamidine in the reaction mixture and having the following formula: […]
Also included are the salts, solvates or solvates of the salts produced by the above compounds. Within the scope of this invention the preferred salts are physiologically harmless salts of the compounds relating to the invention. […]

[10] = in vivo; cited from earlier work
[11] = in vivo; cited from earlier work; remark: listed apart in the source
[12] = single peroral dose 40 mg/mouse
[13] = single peroral dose 60 mg/mouse
[14] = single peroral dose 80 mg/mouse
[15] = single peroral dose 120 mg/mouse
[16] = plasma, mice, single intragastric 100 mg/kg
[17] = mean over 19 pleconaril-sensitive isolates, read-out: IC50 Pleconaril-sensitive CVB3 (n = 19), mean
[18] = mean over all 20 clinical isolates, read-out: IC50 all CVB3 (n = 20), mean
[19] = the one pleconaril-resistant isolate, read-out: IC50 Pleconaril-resistant CVB3 (n = 1)
[20] = read-out: IC50 Pleconaril-resistant HRV (n = 5), mean
[21] = read-out: IC50 Pleconaril-sensitive HRV (n = 45), mean
[22] = read-out: IC50 all HRV (n = 50), mean
[23] = mice, single intragastric 100 mg/kg

Structure (SMILES): Nc1nc(-c2cccc(C(F)(F)F)c2)nc2[nH]nc(Nc3ccccc3)c12 [MS-117]
- melting point: 230 to 232 °C

Structure (SMILES): Nc1nc(-c2cc(C(F)(F)F)cc(C(F)(F)F)c2)nc2[nH]nc(Nc3ccc(Cl)cc3)c12 [MS-115]
- melting point: 272 to 274 °C

Structure (SMILES): Nc1nc(-c2ccccc2)nc2[nH]nc(Nc3ccccc3)c12 [Ref-2, 4-amino-3-(phenylamino)-6-phenylpyrazolo[3,4-d]pyrimidine]
- Stability in liver microsomes [1]: 32.0%
- LD50 at 72 h [2]: 3930 mg/kg
- LD50 [2]: 78.6 mg/mouse
- Dead/Surviving 72 hrs after administration [2, 12]: 0/5
- Dead/Surviving 72 hrs after administration [2, 13]: 1/5
- Dead/Surviving 72 hrs after administration [2, 14]: 3/5
- Dead/Surviving 72 hrs after administration [2, 15]: 4/5
- Plasma stability [3]: 117.0%
- AUC(0-t) [4, 16]: 2.35 µg·h/mL
- AUC(0-inf) [4, 16]: 2.73 µg·h/mL
- Cmax [4, 16]: 1.3 µg/mL
- MRT [4, 16]: 2.14 h
- half-life [4, 16]: 2.96 h
- Tmax [4, 16]: 1 h
- Binding to plasma protein (plasma protein): 99.5%
- Release of plasma protein (plasma protein): 61.0%

Structure (SMILES): Nc1nc(-c2ccccc2)nc2[nH]nc(Nc3ccc(C(F)(F)F)cc3)c12 [CRCV-340, 4-amino-3-(4-trifluormethyl-phenyl)amino-6-phenylpyrazolo[3,4-d]pyrimidine]
- IC50 (clinical CVB3 isolates; [17]): 5.16 µM
- IC50 (clinical CVB3 isolates; [18]): 4.97 µM
- IC50 (clinical CVB3 isolates; [19]): 1.39 µM
- Number of sensitive CVB3 (clinical CVB3 isolates): 18*
- Tolerance on subacute administration [5]: extremely good tolerance
- Stability in liver microsomes, comparison in words ([1]; compared with Ref-2 / state-of-the-art substances): better stability in liver microsomes
- Stability in liver microsomes [1]: 112.0%
- Therapeutic effect (body weight, general condition, lethality) (CVB3 31-1-93 [6]): effective
- Effective spectrum in respect of HRV in comparison to Ref-3 ([7]; 50 HRV serotypes): significantly broader
- IC50 [7, 20]: 22.6 µM
- IC50 [7, 21]: 26.1 µM
- IC50 [7, 22]: 25.7 µM
- Number of sensitive HRV [7]: 49
- Therapeutic effect (body weight, general condition, virus titre in heart and pancreas, histopathology) (CVB3 31-1-93 [8]): effective
- LD50 at 72 h [2]: 3120 mg/kg
- LD50 [2]: 62.4 mg/mouse
- Dead/Surviving 72 hrs after administration [2, 12]: 1/5
- Dead/Surviving 72 hrs after administration [2, 13]: 1/5
- Dead/Surviving 72 hrs after administration [2, 14]: 3/5
- Dead/Surviving 72 hrs after administration [2, 15]: 5/5
- Plasma stability [3]: 100.0%
- Bioavailability in mice, comparison in words ([4]; compared with Ref-2 and Ref-3 / state-of-the-art substances): significantly better bioavailability
- Cmax (maximum concentration in the blood) [4, 23]: 1.2544 µg/mL
- MRT (mean residence time) [4, 23]: 3.54 h
- half-life ([4]; in vivo, mice, single intragastric 100 mg/kg): 3.54 h
- AUC(0-inf) [4, 16]: 9.6 µg·h/mL
- Tmax [4, 16]: 3 h
- Release of plasma protein, comparison in words (plasma protein; in comparison with Ref-2): increased release of plasma protein
- Binding to plasma protein (plasma protein): 96.7%
- Release of plasma protein (plasma protein): 122.3%

Structure (SMILES): Nc1nc(-c2ccccc2)nc2[nH]nc(Nc3ccc(F)cc3)c12 [Ref-5, 4-amino-3-[(4-fluorophenyl)amino]-6-phenylpyrazolo[3,4-d]pyrimidine]
- melting point: 262 to 263 °C

Structure (SMILES): N=C(c1ccccc1)n1nc(Nc2ccc(C(F)(F)F)cc2)c2c(N)nc(-c3ccccc3)nc21 [CRCV-340 prodrug, 1-[Imino(phenyl)methyl]-4-amino-3-(4-trifluormethyl-phenyl)amino-6-phenylpyrazolo[3,4-d]pyrimidine]
- Conversion in vivo into the target compound [9]: very easily converted into the target compound

Structure (SMILES): Cc1cc(CCCCCCCOc2ccc(C3=NCCO3)cc2)on1 [disoxaril]
- Bioavailability [10]: low bioavailability
- Metabolisation and excretion [11]: fast metabolisation and excretion

Structure (SMILES): Cc1cc(CCCOc2c(C)cc(-c3noc(C(F)(F)F)n3)cc2C)on1 [pleconaril]
- Bioavailability [10]: very good oral bioavailability
- Therapeutic effect (body weight, general condition, lethality) (CVB3 31-1-93 [6]): In contrast to the placebo and pleconaril CRCV-340 was effective
- Therapeutic effect (body weight, general condition, virus titre in heart and pancreas, histopathology) (CVB3 31-1-93 [8]): in contrast to the placebo and pleconaril CRCV-340 was effective

Structure (SMILES): Nc1nc(-c2ccccc2)nc2[nH]nc(Nc3ccc(Cl)cc3)c12 [Ref-3, 4-amino-3-(4-chlorphenyl)amino-6-phenylpyrazolo[3,4-d]pyrimidine]
- IC50 (clinical CVB3 isolates; [17]): 0.71 µM
- IC50 (clinical CVB3 isolates; [18]): 0.68 µM
- IC50 (clinical CVB3 isolates; [19]): 0.13 µM
- Number of sensitive CVB3 (clinical CVB3 isolates): 20
- IC50 [7, 20]: 0.07 µM
- IC50 [7, 21]: 18.5 µM
- IC50 [7, 22]: 16.1 µM
- Number of sensitive HRV [7]: 23
- AUC(0-t) [4, 16]: 1.09 µg·h/mL
- AUC(0-inf) [4, 16]: 1.09 µg·h/mL
- Cmax [4, 16]: 0.424 µg/mL
- MRT [4, 16]: 2.44 h
- half-life [4, 16]: 1.47 h
- Tmax [4, 16]: 0.5 h

Structure (SMILES): Nc1nc(-c2ccccc2C(F)(F)F)nc2[nH]nc(Nc3ccc(Cl)cc3)c12 [MS-116]
- melting point: 271 to 273 °C
